In the NIST ThermoML archive (doi:10.1016/j.jct.2011.02.018):
± gives the expanded uncertainty stated by the source.

Experiment: xn = mol fraction of the nth substance listed
Conditions: 101 kPa, Liquid; for viscosity: Concentric cylinders viscometry; for mass density: Vibrating tube method

COC(C)(C)C [2-methoxy-2-methylpropane] + CCCCCCO
Conditions | mass density, 293.15 K [kg/m3] | mass density, 298.15 K [kg/m3] | viscosity, 293.15 K [mPa·s] | viscosity, 298.15 K [mPa·s]
x1 = 0.0103 | 818.26 ± 0.63 | 814.71 ± 0.63 | 5.223 ± 0.22 | 4.46 ± 0.19
x1 = 0.0204 | 817.68 ± 0.62 | 814.12 ± 0.62 | 5.039 ± 0.21 | 4.314 ± 0.18
x1 = 0.0304 | 817.11 ± 0.61 | 813.53 ± 0.61 | 4.87 ± 0.2 | 4.175 ± 0.17
x1 = 0.0408 | 816.51 ± 0.6 | 812.92 ± 0.6 | 4.696 ± 0.2 | 4.036 ± 0.17
x1 = 0.0495 | 816 ± 0.59 | 812.4 ± 0.59 | 4.562 ± 0.19 | 3.925 ± 0.16
x1 = 0.0625 | 815.23 ± 0.58 | 811.62 ± 0.58 | 4.361 ± 0.18 | 3.761 ± 0.16
x1 = 0.0705 | 814.74 ± 0.57 | 811.12 ± 0.57 | 4.252 ± 0.18 | 3.67 ± 0.15
x1 = 0.0799 | 814.17 ± 0.56 | 810.54 ± 0.56 | 4.113 ± 0.17 | 3.555 ± 0.15
x1 = 0.0912 | 813.49 ± 0.55 | 809.83 ± 0.55 | 3.959 ± 0.17 | 3.433 ± 0.14
x1 = 0.0994 | 813.01 ± 0.55 | 809.36 ± 0.54 | 3.852 ± 0.16 | 3.343 ± 0.14
x1 = 0.1508 | 809.87 ± 0.5 | 806.15 ± 0.5 | 3.253 ± 0.14 | 2.842 ± 0.12
x1 = 0.205 | 806.42 ± 0.46 | 802.7 ± 0.46 | 2.733 ± 0.11 | 2.44 ± 0.1
x1 = 0.2579 | 802.99 ± 0.43 | 799.15 ± 0.43 | 2.318 ± 0.096 | 2.067 ± 0.086
x1 = 0.3 | 800.17 ± 0.4 | 796.26 ± 0.4 | 2.047 ± 0.085 | 1.828 ± 0.076
x1 = 0.3574 | 796.2 ± 0.37 | 792.23 ± 0.37 | 1.724 ± 0.071 | 1.56 ± 0.065
x1 = 0.4012 | 793.09 ± 0.35 | 789.05 ± 0.35 | 1.53 ± 0.063 | 1.368 ± 0.056
x1 = 0.4501 | 789.54 ± 0.33 | 785.43 ± 0.33 | 1.324 ± 0.055 | 1.197 ± 0.049
x1 = 0.5028 | 785.58 ± 0.31 | 781.39 ± 0.31 | 1.145 ± 0.047 | 1.045 ± 0.043
x1 = 0.5637 | 780.83 ± 0.29 | 776.53 ± 0.3 | 0.9727 ± 0.04 | 0.8921 ± 0.037
x1 = 0.598 | 778.11 ± 0.29 | 773.75 ± 0.29 | 0.8885 ± 0.037 | 0.8156 ± 0.034
x1 = 0.6508 | 773.76 ± 0.27 | 769.32 ± 0.27 | 0.7769 ± 0.032 | 0.7149 ± 0.029
x1 = 0.7 | 769.62 ± 0.26 | 765.05 ± 0.27 | 0.6805 ± 0.028 | 0.6305 ± 0.026
x1 = 0.7493 | 765.32 ± 0.26 | 760.67 ± 0.26 | 0.6088 ± 0.025 | 0.5658 ± 0.023
x1 = 0.7994 | 760.79 ± 0.25 | 756.02 ± 0.25 | 0.5397 ± 0.022 | 0.5033 ± 0.021
x1 = 0.8514 | 755.91 ± 0.25 | 751.04 ± 0.25 | 0.4782 ± 0.02 | 0.4484 ± 0.019
x1 = 0.903 | 750.84 ± 0.24 | 745.85 ± 0.24 | 0.424 ± 0.018 | 0.397 ± 0.017
x1 = 0.9095 | 750.2 ± 0.24 | 745.2 ± 0.24 | 0.418 ± 0.017 | 0.3923 ± 0.017
x1 = 0.9204 | 749.1 ± 0.24 | 744.07 ± 0.24 | 0.4077 ± 0.017 | 0.3825 ± 0.016
x1 = 0.9294 | 748.16 ± 0.24 | 743.14 ± 0.24 | 0.3999 ± 0.017 | 0.3756 ± 0.016
x1 = 0.9397 | 747.1 ± 0.24 | 742.04 ± 0.24 | 0.3904 ± 0.016 | 0.3661 ± 0.015
x1 = 0.9495 | 746.08 ± 0.24 | 741.01 ± 0.24 | 0.382 ± 0.016 | 0.3603 ± 0.015
x1 = 0.9589 | 745.09 ± 0.24 | 739.99 ± 0.24 | 0.374 ± 0.016 | 0.3542 ± 0.015
x1 = 0.969 | 744.04 ± 0.24 | 738.91 ± 0.24 | 0.3661 ± 0.015 | 0.3441 ± 0.015
x1 = 0.9791 | 742.95 ± 0.24 | 737.79 ± 0.24 | 0.3582 ± 0.015 | 0.337 ± 0.014
x1 = 0.9899 | 741.78 ± 0.24 | 736.6 ± 0.24 | 0.3508 ± 0.015 | 0.3303 ± 0.014
